From US6005099A, “Glucosamine disaccharides, method for their preparation, pharmaceutical composition comprising same, and their use” (priority 1993, dated 1999)
Converted amounts (≈) assume the structure as drawn. “Also recorded” adds a separate entry of the source.

Columns and labels:
protease in LAL [1] = test: Endotoxicity, chromogenic LAL test; format: biochemical, Limulus polyphemus; conditions: ng LPS per ng product, n = 1-10
Experimental: The endotoxicity and the biological activity of disaccharide A (example 1) and of disaccharide B (example 2) were determined and compared to that of lipopolysaccharide originating from Escherichia coli O111:B4 (Sigma, Product No. L3024), lipid A (Sigma, Product No. L5399; used as a starting material in example 4), and 3-O-deacylated lipid A originating from lipid A of Escherichia coli F583 (prepared as in the comparative example), but without purification by HPLC.
The endotoxicity was determined in the Limulus amoebocyte lysate (LAL) test. This test is based on the observation that endotoxins induce coagulation of the hemolymph of Limulus polyphemus.
(§1) The endotoxicity was also measured in the chromogenic test, in which the activation of a protease in LAL by LPS was measured using a chromogen (Ac-Ile-Glu-Ala-Arg-pNA; Bio Whittaker Kit No. 50-650U). The colour formation (liberation of pNA (p-nitroaniline)) was measured at 405 nm.
(§2) Samples were pre-incubated at 37° C. during 10 minutes and subsequently chromogen-comprising LAL was added. The time required for reaching an optical density of 0.2 at 405 nm was measured. The endotoxin activity was calculated in comparison to a reference curve obtained for LPS standards.
The results are expressed in table 3 as: ng LPS per ng product.

[2] = tested on: macrophages of C57BL/6 mice; test: Nitric oxide (NO) production in supernatants of macrophages; format: cell-based
Experimental: (§3) Bone marrow was collected from hip, femur and tibia of six week old male C57BL/6 mice.
(§4) After 7 days the mature macrophages were collected and resuspended in Dulbecco modified medium comprising 5% foetal calf serum to a concentration of 7×10^6 cells per ml. This cell suspension was mixed 1:1, (v/v) with samples diluted in the same medium and used in the biological tests performed in microplates with 70,000 cells/well (incubation at 37° C. for 22 hours, 100% humidity and 8% CO2).
Nitric oxide (NO) is produced by macrophages in response to bacterial infection and in particular LPS. NO seems to have cytostatic and cytotoxic properties. NO is extremely reactive and rapidly converted by oxidation into nitrite and nitrate.
The nitrite formation was determined using the Griess test (addition of 1:1, (v/v) N-(1-naphthyl)ethylene diamine hydrochloride [1 g/l in water] and p-aminobenzenesulphonamide [10 g/l in 5% H3 PO4 ]). The nitrite concentration in supernatants of activated macrophages was calculated in comparison to NaNO2 standards.

[3] = tested on: macrophages of C57BL/6 mice; test: Production of interleukin-6 (IL-6) in supernatants of macrophages, ELISA; format: cell-based
Experimental: as §3, §4
IL-6 concentration in supernatants of macrophages was determined by an ELISA test (Kit ENDOGEN, EM-IL-6).

[4] = tested on: macrophages of C57BL/6 mice; test: Prostaglandin E2 (PGE2) production in supernatants of macrophages, RIA; format: cell-based
Experimental: as §3, §4

[5] = tested on: peritoneal carcinomatosis (Pro b cells); test: In vivo anti-tumor activity against peritoneal carcinomatosis in BDIX rats; conditions: for Number of rats with carcinomatoses of class 0 / Number of rats with carcinomatoses of class 1 / Number of rats with carcinomatoses of class 2 / Number of rats with carcinomatoses of class 3 / Number of rats with carcinomatoses of class 4: 10 rats, 6 weeks; for Number of rats with carcinomatoses of class 0: class 0: no tumor nodules visible; for Number of rats with carcinomatoses of class 1: class 1: a few nodules less than 0.2 cm; for Number of rats with carcinomatoses of class 2: class 2: nodules too many to be counted, up to 0.5 cm; for Number of rats with carcinomatoses of class 3: class 3: tumors up to 1 cm; for Number of rats with carcinomatoses of class 4: class 4: cavity entirely invaded by tumors
Experimental: The in vivo biological activity of disaccharide A was investigated for anti-tumor activity against peritoneal carcinomatosis induced in BDIX rats. Pro b cells obtained according to the method of Martin (Martin, F. et al, International Journal of Cancer, Volume 32, pages 623-627 [1983]) were injected intraperitoneally in rat (10^6 cells per rat). After 10 days numerous solid nodules appear in the mesenterium in the milky spots and progressively invade the peritoneal cavity (see Lagadec, P. et al, Invasion and Metastasis, Volume 7, pages 83-95 [1987]). Hemorrhagic ascitis appeared after 4-5 weeks and all rats died within 8-12 weeks.
Immunotherapy started 14 days after injection of the tumoral Pro b cells. The treatment consisted of intraperitoneal injections of disaccharide A; doses 0.1, 0.3 and 0.8 mg/kg bodyweight. Disaccharide A was dissolved in an aqueous solution of 0.9% NaCl and 0.1% triethylamine. The rats received five injections once every 3.5 days. A control group was injected with the aqueous solution. Both groups comprised 10 rats.
6 Weeks after the injection of the tumoral cells autopsy was carried out. The extent of peritoneal carcinomatosis was evaluated blindly and the rats were classified in the order of increasing carcinomatosis.
The classification of the nodule size is as follows:
class 0: no tumor nodules visible;
class 1: a few nodules of size less than 0.2 cm;
class 2: nodules too many to be counted size up to 0.5 cm;
class 3: tumors in size up to 1 cm;
class 4: tumoral cavity entirely invaded by tumors, size a few cm.
The statistical significance of the anti-tumoral activity was calculated by the Kruskal-Wallis test (1) or (2) using variance analysis.

NMRI mice = test: Acute toxicity in NMRI mice; format: in vivo; conditions: caudal vein, up to 100 mg/kg
Experimental: Disaccharide A was injected into the caudal vein of male and female NMRI mice (age 6-7 weeks).

protease in LAL [6] = test: Endotoxicity, chromogenic LAL test with 0.1 mg/ml bovine serum albumin; format: biochemical, Limulus polyphemus; conditions: n=4 or 6
Experimental: as §1, §2
The endotoxicity of the disaccharides E, F and G was determined using the chromogenic LAL test (see infra). However, instead of using 1 mg/ml bovine serum albumin, 0.1 mg/ml has been used. The results (n=4 or 6) were obtained in two series of experiments and are shown hereafter.

[7] = for lipid A and 3-O-deacylated lipid A activity relatively constant within the tested range, no maximum

CCCCCCCCCCCC(=O)O[C@H](CCCCCCCCCCC)CC(=O)N[C@H]1[C@H](OC[C@H]2O[C@H](OP(=O)(O)O)[C@H](NC(=O)C[C@H](O)CCCCCCCCCCC)[C@@H](O)[C@@H]2O)O[C@H](CO)[C@@H](OP(=O)(O)O)[C@@H]1O [disaccharide A, 2-Deoxy-6-O-[2-deoxy-2-[(R)-3-dodecanoyloxytetradecanoylamino]-4-O-phosphono-β-D-glucopyranosyl]-2-[(R)-3-hydroxytetradecanoylamino]-α-D-glucopyranosyl dihydrogenphosphate]
Endotoxic activity in LAL, chromogen (protease in LAL [1]): 0.0014 ± 0.0013 ng/ng | EC50 ([2]; Mus musculus, Macrophage, product concentration corresponding to 50% activity, 22 hours, 37° C.): 0.16 µg/mL (≈ 0.141 µM) | minimal effective concentration ([2]; Mus musculus, Macrophage, product concentration corresponding to induced NO activity, 22 hours, 37° C., read-out: NO production: Minimum activity (product concentration)): 0.016 µg/mL | NO activity at 50% in nmol of NO2- /ml ([2]; extrapolated from the series dilution curve): 5 nmol of NO2- /ml | NO production, in words ([2]; macrophages of C57BL/6 mice): induce NO production of the same order; also recorded: as strongly as lipid A and 3-O-deacylated lipid A | NO production: Maximum activity (product concentration) ([2]; product concentration corresponding to induced NO activity, 22 hours, 37° C.): 50 µg/mL | IL-6 at 50% activity ([3]; 50% activity): 2850 pg/mL | minimal effective concentration ([3]; Mus musculus, Macrophage, 22 h, read-out: IL-6: Minimum activity, concentration): 0.016 µg/mL | EC50 ([3]; Mus musculus, Macrophage, read-out: IL-6: 50% activity, concentration): 1 µg/mL (≈ 0.881 µM) | IL-6 at minimum activity ([3]; at the concentration of minimum activity): 850 ± 350 pg/mL | IL-6: Maximum activity, concentration [3, 7]: 50 µg/mL | IL-6 at maximum activity [3, 7]: 5700 ± 2650 pg/mL | IL-6 production, in words ([3]; macrophages of C57BL/6 mice): significantly lower than for LPS; also recorded: more strongly than lipid A and 3-O-deacylated lipid A | PGE2 at highest concentration inducing an activity ([4]; 500 μg/ml, detection limit of the order of 80 pg/ml): 540 ± 65 pg/mL | PGE2 at lowest concentration inducing an activity ([4]; LPS 6.25, 3-O-deacylated lipid A 500, disaccharide A 16 μg/ml, detection limit of the order of 80 pg/ml): 80 ± 41 pg/mL | minimal effective concentration ([4]; Mus musculus, Macrophage, 22 h, detection limit of the order of 80 pg/ml, read-out: PGE2: Lowest concentration inducing an activity): 16 µg/mL | PGE2: Highest concentration inducing an activity ([4]; highest concentration used): 500 µg/mL | PGE2 production, in words ([4]; macrophages of C57BL/6 mice): significantly lower than for LPS; also recorded: more active than lipid A and 3-O-deacylated lipid A | Ascitis volume, Average ([5]; 0.1 mg/kg i.p.): 7 ± 7 ml/rat | Ascitis volume, Limits ([5]; 0.1 mg/kg i.p.): 0-18 ml/rat | Number of rats with carcinomatoses of class 0 ([5]; 0.1 mg/kg i.p.): 0 | Number of rats with carcinomatoses of class 1 ([5]; 0.1 mg/kg i.p.): 2 | Number of rats with carcinomatoses of class 2 ([5]; 0.1 mg/kg i.p.): 0 | Number of rats with carcinomatoses of class 3 ([5]; 0.1 mg/kg i.p.): 4 | Number of rats with carcinomatoses of class 4 ([5]; 0.1 mg/kg i.p.): 4 | Ascitis volume, Average ([5]; 0.3 mg/kg i.p.): 2 ± 6 ml/rat | Ascitis volume, Limits ([5]; 0.3 mg/kg i.p.): 0-20 ml/rat | Number of rats with carcinomatoses of class 0 ([5]; 0.3 mg/kg i.p.): 2 | Number of rats with carcinomatoses of class 1 ([5]; 0.3 mg/kg i.p.): 3 | Number of rats with carcinomatoses of class 2 ([5]; 0.3 mg/kg i.p.): 2 | Number of rats with carcinomatoses of class 3 ([5]; 0.3 mg/kg i.p.): 2 | Number of rats with carcinomatoses of class 4 ([5]; 0.3 mg/kg i.p.): 1 | Ascitis volume, Average ([5]; 0.8 mg/kg i.p.): 0 ± 1 ml/rat | Ascitis volume, Limits ([5]; 0.8 mg/kg i.p.): 0-2 ml/rat | Number of rats with carcinomatoses of class 0 ([5]; 0.8 mg/kg i.p.): 1 | Number of rats with carcinomatoses of class 1 ([5]; 0.8 mg/kg i.p.): 6 | Number of rats with carcinomatoses of class 2 ([5]; 0.8 mg/kg i.p.): 1 | Number of rats with carcinomatoses of class 3 ([5]; 0.8 mg/kg i.p.): 1 | Number of rats with carcinomatoses of class 4 ([5]; 0.8 mg/kg i.p.): 1 | Anti-tumoral effect, in words ([5]; peritoneal carcinomatosis): dose-dependent anti-tumoral effect | Acute toxicity, deaths (NMRI mice): did not induce any death | Endotoxic activity in LAL (protease in LAL [6]): 0.000003 ± 0.000002 mg/mg
